# Laboratory results reported in patent US9326506B2, “Preparation method, agricultural composition and applications of natural brassinolide analogs” (CHENGDU NEWSUN CROPSCIENCE CO., LTD, priority 2012, dated 2016).
# Test system: rice
# Assay: Low temperature assay on rice seedlings
# Format: in vivo
# Experimental: According to a low temperature assay, we measured parameters including plant height, number of leaf, area of leaf, number of tiller, weight of root at low temperature to completely determine effects of the natural brassinolide analogues on the resistance to low temperature of a plant.
# The natural brassinolide analogues, BR1, BR2, BR3, BR4, BR5 and BR6, used herein, were those prepared by the method of Example 1. Respectively the analogues were dissolved into 95% (V/V) ethanol solution, and then diluted with pure water to 1 mg/L, 0.1 mg/L, 0.01 mg/L, 0.001 mg/L and 0.0001 mg/L. In addition, pure water was used as a control.
# After rice seeds were disinfected by using 5% sodium hypochlorite solution treatment, they were rinsed with distilled water until their pH>7, placed into a petri dish in a dark incubator, and cultured by using water at 30° C.±2° C. for 9 days. Then respectively the nine-day-old etiolated seedlings of rice were immersed in the above solutions containing different concentrations of the natural brassinolide analogues or pure water, and cultured at the temperature of 1° C., 2° C., 3° C., 4° C. and 5° C. for 24 hr. The parameters including plant height, area of leaf and weight of root after 3, 6, 9 and 12 days and number of leaf and number of tiller after 12 days were measured.
smiles,measurement,setting,value
CC(C)(O)CC[C@@H](O)[C@](C)(O)[C@H]1CC[C@@]2(O)[C@@H]3CC(=O)[C@@H]4C[C@@H](O)[C@@H](O)C[C@]4(C)[C@H]3CC[C@]12C [BR6],Height,"0.01 mg/l, 3 °C, 9 days",7.4 cm
same,Weight of root,"0.01 mg/l, 3 °C, 9 days",2.9 g
same,Area of leaf,"0.01 mg/l, 3 °C, 12 days",13.2 cm^2
same,Height,"0.01 mg/l, 3 °C, 12 days",7.6 cm
same,Number of leaf,"0.01 mg/l, 3 °C, 12 days",3
same,Number of tiller,"0.01 mg/l, 3 °C, 12 days",2
same,Weight of root,"0.01 mg/l, 3 °C, 12 days",2.9 g
same,Area of leaf,"0.01 mg/l, 4 °C, 3 days",10.8 cm^2
same,Height,"0.01 mg/l, 4 °C, 3 days",7.1 cm
same,Weight of root,"0.01 mg/l, 4 °C, 3 days",2.5 g
same,Area of leaf,"0.01 mg/l, 4 °C, 6 days",12.4 cm^2
same,Height,"0.01 mg/l, 4 °C, 6 days",7.3 cm
same,Weight of root,"0.01 mg/l, 4 °C, 6 days",2.6 g
same,Area of leaf,"0.01 mg/l, 4 °C, 9 days",13.7 cm^2
same,Height,"0.01 mg/l, 4 °C, 9 days",7.6 cm
same,Weight of root,"0.01 mg/l, 4 °C, 9 days",2.9 g
same,Area of leaf,"0.01 mg/l, 4 °C, 12 days",13.7 cm^2
same,Height,"0.01 mg/l, 4 °C, 12 days",7.8 cm
same,Number of leaf,"0.01 mg/l, 4 °C, 12 days",3
same,Number of tiller,"0.01 mg/l, 4 °C, 12 days",2
same,Weight of root,"0.01 mg/l, 4 °C, 12 days",3.0 g
same,Area of leaf,"0.01 mg/l, 5 °C, 3 days",10.9 cm^2
same,Height,"0.01 mg/l, 5 °C, 3 days",7.7 cm
same,Weight of root,"0.01 mg/l, 5 °C, 3 days",2.8 g
same,Area of leaf,"0.01 mg/l, 5 °C, 6 days",13.9 cm^2
same,Height,"0.01 mg/l, 5 °C, 6 days",7.8 cm
same,Weight of root,"0.01 mg/l, 5 °C, 6 days",3.0 g
same,Area of leaf,"0.01 mg/l, 5 °C, 9 days",17.1 cm^2
same,Height,"0.01 mg/l, 5 °C, 9 days",8.1 cm
same,Weight of root,"0.01 mg/l, 5 °C, 9 days",3.4 g
same,Area of leaf,"0.01 mg/l, 5 °C, 12 days",18 cm^2
same,Height,"0.01 mg/l, 5 °C, 12 days",8.5 cm
same,Number of leaf,"0.01 mg/l, 5 °C, 12 days",4
same,Number of tiller,"0.01 mg/l, 5 °C, 12 days",3
same,Weight of root,"0.01 mg/l, 5 °C, 12 days",3.9 g
same,Area of leaf,"0.1 mg/l, 1 °C, 3 days",10.1 cm^2
same,Height,"0.1 mg/l, 1 °C, 3 days",7.0 cm
same,Weight of root,"0.1 mg/l, 1 °C, 3 days",2.8 g
same,Area of leaf,"0.1 mg/l, 1 °C, 6 days",12 cm^2
same,Height,"0.1 mg/l, 1 °C, 6 days",7.3 cm
same,Weight of root,"0.1 mg/l, 1 °C, 6 days",3.0 g
same,Area of leaf,"0.1 mg/l, 1 °C, 9 days",12.9 cm^2
same,Height,"0.1 mg/l, 1 °C, 9 days",7.3 cm
same,Weight of root,"0.1 mg/l, 1 °C, 9 days",3.4 g
same,Area of leaf,"0.1 mg/l, 1 °C, 12 days",13.4 cm^2
same,Height,"0.1 mg/l, 1 °C, 12 days",7.5 cm
same,Number of leaf,"0.1 mg/l, 1 °C, 12 days",3
same,Number of tiller,"0.1 mg/l, 1 °C, 12 days",3
same,Weight of root,"0.1 mg/l, 1 °C, 12 days",3.7 g
same,Area of leaf,"0.1 mg/l, 2 °C, 3 days",10.4 cm^2
same,Height,"0.1 mg/l, 2 °C, 3 days",7.1 cm
same,Weight of root,"0.1 mg/l, 2 °C, 3 days",2.9 g
same,Area of leaf,"0.1 mg/l, 2 °C, 6 days",11.8 cm^2
same,Height,"0.1 mg/l, 2 °C, 6 days",7.2 cm
same,Weight of root,"0.1 mg/l, 2 °C, 6 days",3.0 g
same,Area of leaf,"0.1 mg/l, 2 °C, 9 days",12.8 cm^2
same,Height,"0.1 mg/l, 2 °C, 9 days",7.3 cm
same,Weight of root,"0.1 mg/l, 2 °C, 9 days",3.1 g
same,Area of leaf,"0.1 mg/l, 2 °C, 12 days",13 cm^2
same,Height,"0.1 mg/l, 2 °C, 12 days",7.4 cm
same,Number of leaf,"0.1 mg/l, 2 °C, 12 days",3
same,Number of tiller,"0.1 mg/l, 2 °C, 12 days",3
same,Weight of root,"0.1 mg/l, 2 °C, 12 days",3.2 g
same,Area of leaf,"0.1 mg/l, 3 °C, 3 days",10.5 cm^2
same,Height,"0.1 mg/l, 3 °C, 3 days",7.2 cm
same,Weight of root,"0.1 mg/l, 3 °C, 3 days",2.5 g
same,Area of leaf,"0.1 mg/l, 3 °C, 6 days",12 cm^2
same,Height,"0.1 mg/l, 3 °C, 6 days",7.3 cm
same,Weight of root,"0.1 mg/l, 3 °C, 6 days",2.6 g
same,Area of leaf,"0.1 mg/l, 3 °C, 9 days",12.8 cm^2
same,Height,"0.1 mg/l, 3 °C, 9 days",7.4 cm
same,Weight of root,"0.1 mg/l, 3 °C, 9 days",2.8 g
same,Area of leaf,"0.1 mg/l, 3 °C, 12 days",13.2 cm^2
same,Height,"0.1 mg/l, 3 °C, 12 days",7.5 cm
same,Number of leaf,"0.1 mg/l, 3 °C, 12 days",3
same,Number of tiller,"0.1 mg/l, 3 °C, 12 days",2
same,Weight of root,"0.1 mg/l, 3 °C, 12 days",2.9 g
same,Area of leaf,"0.1 mg/l, 4 °C, 3 days",10.8 cm^2
same,Height,"0.1 mg/l, 4 °C, 3 days",7.1 cm
same,Weight of root,"0.1 mg/l, 4 °C, 3 days",2.5 g
same,Area of leaf,"0.1 mg/l, 4 °C, 6 days",12.5 cm^2
same,Height,"0.1 mg/l, 4 °C, 6 days",7.4 cm
same,Weight of root,"0.1 mg/l, 4 °C, 6 days",2.7 g
same,Area of leaf,"0.1 mg/l, 4 °C, 9 days",13.5 cm^2
same,Height,"0.1 mg/l, 4 °C, 9 days",7.5 cm
same,Weight of root,"0.1 mg/l, 4 °C, 9 days",2.9 g
same,Area of leaf,"0.1 mg/l, 4 °C, 12 days",13.8 cm^2
same,Height,"0.1 mg/l, 4 °C, 12 days",7.7 cm
